Data: the supplement of paper PMC3493320
Several values for one entry are separate records, joined by “and”; a condition that tells them apart may be missing. Equal entries are not always repeated.

Test system: NCI-H295R
Assay: maximal response (efficacy) relative to DMSO (0%) and doxorubicin (-100%); higher = less growth inhibition
Details: 48 h

Compound | maximal response
CC(=O)[O][Co][N]1/C2=C(/C)C3=N/C(=C\C4=NC(=C(/C)C5=N[C@H]([C@H](CC(N)=O)[C@@]5(C)CCC(=O)NCC(C)OP(=O)(O)O[C@H]5[C@@H](O)[C@@H](n6cnc7cc(C)c(C)cc76)O[C@@H]5CO)[C@@]1(C)[C@@](C)(CC(N)=O)[C@@H]2CCC(N)=O)/[C@@H](CCC(N)=O)C4(C)C)[C@@H](CCC(N)=O)[C@]3(C)CC(N)=O (stereo partly drawn) | -34.1%
CC1(C)C3=C(C=CC=C3)/C(C2=C1C=CC=C2)=C/CCN(C)C.Cl | -21.5%
F\C1=C\N(C(=O)NC1=O)[C@H]2C[C@H](O)[C@@H](CO)O2 | -37.6%
COc1cc2c(c(OC)c1OC)-c1ccc(OC)c(=O)cc1[C@@H](NC(C)=O)CC2 | -49.9%
Cc1cc2nc3c(=O)[nH]c(=O)nc-3n(C[C@H](O)[C@H](O)[C@H](O)COP(=O)([O-])OP(=O)([O-])OC[C@H]3O[C@@H](n4cnc5c(N)ncnc54)[C@H](O)[C@@H]3O)c2cc1C.[Na+].[Na+] | 22%
O=C1C(C(O)=C4C([C@@H](O[C@@H]5O[C@@H](C)[C@@H](O[C@@H]6CCCCO6)[C@@H](N)C5)C[C@@]([C@](CO)=O)(O)C4)=C3O)=C3C(C2=C1C=CC=C2OC)=O | -43%
Cc1c(C(=O)O)c(O)cc2c1C(=O)c1c(O)c([C@@H]3O[C@H](CO)[C@@H](O)[C@H](O)[C@H]3O)c(O)c(O)c1C2=O | -50.2%
COc1cc(CNC(=O)CCCC/C=C/C(C)C)ccc1O | -21.6%
O=C(O)Cc1cc(I)c(Oc2ccc(O)c(I)c2)c(I)c1 | -31.4%
CCC(CC)(CC(=O)Nc1cccc(/C=C/c2nc(C3CCC3)cs2)c1)C(=O)O | -34.3%
O=C(Nc1ncc([N+](=O)[O-])s1)c1cccs1 | -58.5%
O=C2O[C@](C#CC3CC3)([C@](F)(F)F)C1=CC(Cl)=CC=C1N2 | -38%
O=C1c2cccc(O)c2C(=O)c2c(O)cccc21 | -35.8%
COc1c(C)c2c(c(O)c1C/C=C(\C)CCC(=O)O)C(=O)OC2 | -29.5%
C/C(=C\c1csc(C)n1)[C@@H]1C[C@@H]2O[C@]2(C)CCC[C@H](C)[C@H](O)[C@@H](C)C(=O)C(C)(C)[C@@H](O)CC(=O)O1 | -57.6%
O[C@@]1(CC)C[C@H](C2)C[C@@]([C@]7=C(OC)C=C6N(C)[C@]5([H])[C@@](C6=C7)(CC9)[C@](N9CC=C8)([H])[C@]8(CC)[C@@H](OC(C)=O)[C@@](O)5[C@@](OC)=O)([C@](OC)=O)C(NC4=CC=CC=C34)=C3CCN2C1.O=S(O)(O)=O | -54.7% and -52.9%
O=[C@@](OC)[C@](C(N3)=C4C2=C3C=CC=C2)([C@@]5=CC([C@]69[C@]8([H])[C@](C=CCN8CC9)(CC)[C@@H](OC(C)=O)[C@](O)([C@](OC)=O)[C@@]([H])6N7C=O)=C7C=C5OC)C[C@H]1C[C@](CC)(O)CN(CC4)C1 | -44.6%
CN1CCC(CN2c3ccccc3Sc3ccccc32)C1.Cl (stereo not drawn) | -26.6%
O=[N+]([O-])c1cc(I)c(O)c(I)c1 | -32.6%
O=C3C1=C(NC(N)=N3)NC=C1CCC2=CC=C(C(N[C@H]([C@@]([O-])=O)CCC([O-])=O)=O)C=C2.[Na+].[Na+] | -56.4%
Nc1ncnc2[nH]cnc12 | 30.9%
O=[C@@](OC)[C@](C(N3)=C(C4)C2=C3C=CC=C2)([C@@]5=CC([C@]69[C@]8([H])[C@](C=CCN8CC9)(CC)[C@@H](OC(C)=O)[C@](O)([C@](OC)=O)[C@@]([H])6N7C)=C7C=C5OC)C[C@]1([H])C=C(CC)CN4C1.O=C(O)C(O)C(O)C(O)=O.O=C(O)C(O)C(O)C(O)=O | -56.6%
CC(CN(C)C)CN1c2ccccc2Sc2ccc(C(F)(F)F)cc21.O=C(O)C=CC(=O)O (stereo not drawn) | -30.2%
CCOc1ccc(Cc2nccc3cc(OCC)c(OCC)cc23)cc1OCC.Cl | -39.5%
CCN(CC)C(=S)SSC(=S)N(CC)CC | -27.3%

Compound | maximal response
CCC/C=C/C=C/C(=O)O[C@H]1/C(=C/C(=O)OC)C[C@H]2C[C@H]([C@@H](C)O)OC(=O)C[C@H](O)C[C@@H]3C[C@H](OC(C)=O)C(C)(C)[C@](O)(C[C@@H]4C/C(=C/C(=O)OC)C[C@H](/C=C/C(C)(C)[C@]1(O)O2)O4)O3 | -41.4%
O=C([O-])C1=C(CSc2nnnn2CS(=O)(=O)[O-])CS[C@@H]2[C@H](NC(=O)[C@H](O)c3ccccc3)C(=O)N12.[Na+].[Na+] | 25.5%
CCOC(=O)Oc1c(OC)cc(cc1OC)C(=O)O[C@@H]4C[C@@H]5CN6CC\C3=C(\Nc2cc(OC)ccc23)[C@H]6C[C@@H]5[C@H](C(=O)OC)[C@H]4OC | -30.6%
CCCCOc1ccc(CC(=O)NO)cc1 | -24%
O=C(NC(=O)c1c(F)cccc1F)Nc1ccc(Cl)c(Oc2ncc(C(F)(F)F)cc2Cl)c1 | -39.7%
NC(=O)N/N=C/c1ccc([N+](=O)[O-])o1 | -20.7%
Nc1nc(Cl)nc2c1ncn2[C@@H]1O[C@H](CO)[C@@H](O)[C@@H]1F | -29.5%
COC(=O)C1=C(C)NC(C)=C(C(=O)OC(C)(C)CN(C)CCC(c2ccccc2)c2ccccc2)C1c1cccc([N+](=O)[O-])c1.Cl (stereo not drawn) | -45.6%
O=C1C(O)=C([C@H]2CC[C@H](c3ccc(Cl)cc3)CC2)C(=O)c2ccccc21 | -51%
CC(C)(COP(=O)([O-])OP(=O)([O-])OC[C@H]1O[C@@H](n2cnc3c(N)ncnc32)[C@H](O)[C@@H]1OP(=O)([O-])O)C(O)C(=O)NCCC(=O)NCCS.O.O.[Li+].[Li+].[Li+] (stereo partly drawn) | 33%
COC(=O)c1ccccc1C(=O)c1ccc(OCCN2CCCCC2)cc1.Cl | -26.8%
COC(=O)Nc1nc2cc(Sc3ccccc3)ccc2[nH]1 | -54.1%
O=c1[nH]c2ccccc2n1CCCN1CCC(n2c(=O)[nH]c3cc(Cl)ccc32)CC1 | -25.4%
C[C@]12CCC(=O)C=C1[C@@H]1C[C@@H]1[C@H]1[C@@H]3[C@@H]4C[C@@H]4[C@@]4(CCC(=O)O4)[C@@]3(C)CC[C@@H]12 | -33.2%
CNCC/C=C2/C1=C(CCC3=C2C=CC=C3)C=CC=C1.Cl | -38.9%
O=C(N[C@@H](c1ccccc1)[C@@H](O)C(=O)O[C@H]3C[C@@]4(O)[C@@H](OC(=O)c2ccccc2)[C@@H]5[C@]6(OC(C)=O)CO[C@@H]6C[C@H](O)[C@@]5(C)C(=O)[C@H](OC(C)=O)\C(=C3/C)C4(C)C)c7ccccc7 | -55.9%
N\1(C(N(C(CC)C)/N=C/1)=O)c7ccc(N2CCN(CC2)c6ccc(OC[C@@H]5O[C@](c3c(cc(cc3)Cl)Cl)(Cn4ncnc4)OC5)cc6)cc7 (stereo partly drawn) | -23.1%
CC(=O)Oc1ccc2c(c1)CC[C@@H]1[C@@H]2CC[C@]2(C)[C@@H](O)CC[C@@H]12 | -30.8%
CC1=CC(=O)[N-]S(=O)(=O)O1.[K+] | -79.3%
COC(=O)Nc1nc2cc(C(=O)c3ccccc3)ccc2[nH]1 | -50.2%
N[C@H](C(=O)O)[C@@H]1CC(Cl)=NO1 | -39.1%
COc1c(C)c2c(c(O)c1CC=C(C)CCC(=O)OCCN1CCOCC1)C(=O)OC2 | -54.6%
CCNC(=O)N1CCN(CCCC(c2ccc(F)cc2)c2ccc(F)cc2)CC1.Cl | -34.2%
CN(C)CCCN1c2ccccc2CCc2ccccc21 | -21%
[O-][n+]1ccccc1SSc1cccc[n+]1[O-] | -23.5%

Compound | maximal response
Cl.O=C(C[C@@H]1NCCC[C@H]1O)Cn1cnc2cc(Br)c(Cl)cc2c1=O | -28.3%
O=C(CCCCCCC(=O)Nc1ccccc1)NO | -37.1%
O=C(N)[C@@](C2=CC=CC=C2)([C@H]3CN(CCC4=CC(CCO5)=C5C=C4)CC3)C1=CC=CC=C1.Br | -31.7%
COc1cc(C(=O)OCCCN2CCCN(CCCOC(=O)c3cc(OC)c(OC)c(OC)c3)CC2)cc(OC)c1OC | -31.2%
C[C@@H]1CCC2[C@@H](C)[C@@H](O)O[C@@H]3O[C@@]4(C)CC[C@@H]1[C@@]23OO4 (stereo partly drawn) | -56.4%
Nc1ncnc2c1ncn2[C@@H]1O[C@H](COP(=O)(O)O)[C@@H](O)[C@@H]1O | 22%
CCCOc1ccc2[nH]c(NC(=O)OC)nc2c1 | -48.4%
O=C(Nc1ccc(Cl)cc1)Nc1ccc(Cl)c(Cl)c1 | -41.7%
Cl.Cl.O=C1c2c(O)ccc(O)c2C(=O)c2c(NCCNCCO)ccc(NCCNCCO)c21 | -59.3%
Oc1ccc(O)cc1 | -31.2%
O=C2N(CCC8)[C@]8([H])[C@@](O[C@](C)1N[C@]([C@@H]6C=C([C@]7([H])N(C)C6)C5=C4C(C7)=CNC4=CC=C5)=O)(O)N([C@H]2CC3=CC=CC=C3)C1=O.O=C%10N(CCC%16)[C@]%16([H])[C@@](O[C@](C)9N[C@]([C@@H]%14C=C([C@]%15([H])N(C)C%14)C%13=C%12C(C%15)=CNC%12=CC=C%13)=O)(O)N([C@H]%10CC%11=CC=CC=C%11)C9=O.O[C@@H](C(O)=O)[C@@H](O)C([O-])=O | -31.1%
CCCOc1ccc2nc(NC(=O)OC)sc2c1 | -48.5%
Oc1ccc(Cl)c2cccnc12 | -33.2%
N[C@@H](Cc1cc(I)c(Oc2cc(I)c(O)c(I)c2)c(I)c1)C(=O)O | -25.6%
COc1cc(C)c(Cc2cnc(N)nc2N)cc1OC | -57.4%
COc1cc(/C=C/C(=O)O[C@H]2CC[C@]34C[C@]35CC[C@]3(C)[C@@H]([C@H](C)CCC=C(C)C)CC[C@@]3(C)[C@@H]5CC[C@H]4C2(C)C)ccc1O | -40.3%
COC(=O)C1=C(C#N)NC(C)=C(C(=O)OC(C)C)C1c1cccc([N+](=O)[O-])c1 (stereo not drawn) | -23.9%
CN(Cc1ccc(C(C)(C)C)cc1)Cc1cccc2ccccc12 | -43.8%
CC[C@@]1(O)C(=O)OCc2c1cc1n(c2=O)Cc2cc3c(CN(C)C)c(O)ccc3nc2-1.Cl | -36.8%
Nc1c(/N=N/c2ccc(-c3ccc(/N=N/c4cc(S(=O)(=O)[O-])c5ccccc5c4N)cc3)cc2)cc(S(=O)(=O)[O-])c2ccccc12.[Na+].[Na+] | -53.2%
CCCSc1ccc2[nH]c(NC(=O)OC)nc2c1 | -55.1%
COc1cc(C=C2CCCC(=Cc3ccc(O)c(OC)c3)C2=O)ccc1O | -130%
COC(=O)Nc1nc2cc(C(=O)c3cccs3)ccc2[nH]1 | -53.8%
